Source: patent US9944610B2, “Preparation and method for use in the treatment of respiratory diseases” (Universite Laval, priority 2013, dated 2018)

Experiments:
[1] = Particle size analysis (PSD), Malvern Mastersizer; type: physicochemical
Protocol: A 2 g sample of anhydrous crystalline ASM-024 was taken and fed through the Sturtevant Qualification Micronizer. The mill has a 2 inch chamber, and was operated at 80 psig grinding pressure and 90 psig feed pressure. Milled API was recovered from the exhaust filter sock and physically characterized.
Particle size analysis was performed using a Malvern Mastersizer with a Small Sample Presentation Unit. The dispersant used was ethyl acetate with 2 g of SPAN 85 per liter. Samples were prepared by sonicating 5 mg of sample in 2 ml of dispersant, the sample was then added dropwise to achieve 20% obscuration.
Magnesium stearate was blended with un-milled ASM-024 in two gram lots. Approximately one gram of ASM-024 was weighed into a 28 ml vial. The appropriate mass of magnesium stearate was then weighed on top of the API and the weight completed to two grams with ASM-024. The materials were blended using a Turbula T2F mixer at 101 rpm for ten minutes. The blended material was passed through the Sturtevant Qualification Micronizer and recovered from the filter sock.

[2] = ASM-024 capsule stability study, NGI testing of fine particle mass (FPM); type: physicochemical; conditions: eight weeks at 40° C./75% RH
Protocol: (§1) For method development using the NGI method, size three HPMC capsules were hand filled with forty milligrams of micronized ASM-024. Three capsules were tested according to manufacturer's instructions using the following conditions: • Cup coating agent: 3% PEG400 with 0.1% F68 in acetone • Testing flow rate: 60 LPM • Testing volume: 4 L (4 second actuation) • Device: Miat Monodose Inhaler (standard resistance) • Sample diluent: 70% MeOH: 30% H2O (v/v) • Dilutions • Device—50 ml • Throat—50 ml • Pre-separator—100 ml • Stage 1—MOC—10 ml • Filter—50 ml
A two month study was performed at accelerated conditions with testing at two weeks, four weeks and eight weeks. Hand filled 40 mg capsules were packed in foil pouches with a 10 g desiccant pouch and heat sealed. Hand filled 40 mg capsules were also packed in foil pouches and heat sealed without a desiccant pouch. All heat seals were hand checked to ensure seal integrity. Pouches were placed on stability at 40° C./75% RH. NGI testing of the capsules stored without desiccant were conducted over the eight week study.

[3] = NGI aerosol testing, mass retained in device and capsule; type: physicochemical; conditions: 40 mg capsule fill weight, standard and high resistance Miat Monodose inhalers
Protocol: as §1
Aerosol performance and stability was assessed. Milled API was hand filled into size 3 HPMC capsules and size 3 gelatin capsules (40 mg capsule fill weight). NGI testing was performed in duplicate using standard resistance and high resistance Miat Monodose inhalers. […] The high resistance device has provided an increased FPM of ASM-024 from both HPMC and gelatin capsules.

LTD4-induced contraction = assay: Relaxant effect on LTD4-induced contraction
[4] = PSD of ASM-024 prior to micronization
[5] = co-milled with 0.2 % w/w magnesium stearate
[6] = co-milled with 0.5 % w/w magnesium stearate
[7] = co-milled with 1.0 % w/w magnesium stearate
[8] = co-milled with 2.0 % w/w magnesium stearate
[9] = milled, 0.0 % magnesium stearate

CC[N+]1(CC)CCCN(c2ccccc2)CC1 [ASM-024]
d10 [1, 4]: 13.92 μm | d50 [1, 4]: 41.67 μm | d90 [1, 4]: 91.89 μm | d10 ([1]; after one pass in jet air mill): 0.78 μm | d50 ([1]; after one pass in jet air mill): 2.10 μm | d90 ([1]; after one pass in jet air mill): 4.70 μm | d10 [1, 5]: 0.89 µm | d50 [1, 5]: 1.74 µm | d90 [1, 5]: 3.33 µm | d10 [1, 6]: 0.89 µm | d50 [1, 6]: 1.86 µm | d90 [1, 6]: 3.94 µm | d10 [1, 7]: 0.9 µm | d50 [1, 7]: 1.7 µm | d90 [1, 7]: 3.17 µm | d10 [1, 8]: 0.91 µm | d50 [1, 8]: 1.69 µm | d90 [1, 8]: 3.11 µm | d10 [1, 9]: 0.97 µm | d50 [1, 9]: 1.95 µm | d90 [1, 9]: 3.8 µm | decrease in FPM ([2]; 40 mg capsules in foil pouches with 10 g desiccant pouch): ~5.7% | decrease in FPM ([2]; 40 mg capsules in foil pouches without desiccant): 10.9% | mass of ASM-024 retained in the device and capsule after NGI testing [3]: less than 20 mg | relaxant effect on LTD4-induced contraction (LTD4-induced contraction): no relaxant effect
